Results on eight compounds are retold here after patent publication US20050119243A1, “HIF-1 inhibitors and methods of use thereof” (priority 2003, published 2005).

Residues, ends and D or L forms follow the SMILES beside them. *: point of attachment. Cbz = O=C(OCc1ccccc1)*

In assay [1] the test system is HIF-1α. Put plainly: HIF-1α detection in HEK 293 and HT144 cells treated with DBM plus metals. Format: cell-based, human. The conditions noted are these: cells exposed to DBM plus the metal. The source says:
In subsequent studies, similar data has been found for HEK 293 human embryonic kidney cells and HT144 melanoma cells treated with either DBM or Zn^2+. […] This finding appears to be unique to the combination of DBM with Zn^2+ since it was not observed in cells exposed to DBM plus other metals such as Fe^3+, Co^2+, Cd^2+, and Ni^2+. Furthermore, this unexpected reversal of the independent effects of DBM and Zn^2+ was not blocked by hypoxia. These observations are counterintuitive since inhibitors of HIF P4H should impede degradation of HIF-1α. Also, these two HIF P4H inhibitors appear to work in concert under inhibitory conditions to down-regulate HIF-1α with little effect on HIF-1α mRNA levels.

Assay [2] has as its system HIF-1α and VEGF. Conditions: LNCaP cells, ambient O2; cited from earlier work.
Assay [3] has as its system HIF-1α. Description: Western blot analysis of HIF-1α in HT144 melanoma cells under hypoxic conditions. The assay is classed as cell-based, human. Conditions: HT 144 cells; for HIF-1α levels by Western blot: 2 hours under 1% O2. The method, then: (§1) HT 144 melanoma cells (FIG. 16(A)) and HEK 293 embryonic kidney cells (FIG. 16(B)) were incubated for 2 hours under 1% O2. HIF-1α […].

Assay [4] relates to HIF-1α mRNA. Description: Semiquantitative PCR of HIF-1α mRNA levels in HEK 293 cells under normoxia. The assay is classed as cell-based, human. Conditions: HEK 293, normoxia, 2 hours, serum free media. How it is done: The effects of DBM alone, Zn^2+ alone and DBM plus Zn^2+ on HIF-1αmRNA levels were assessed by semiquantitative PCR in extracts of HEK 293 kidney cells under normoxia for 2 hours in serum free media (FIG. 17). […] HIF-1αZ mRNA levels were not found to be increased (data not shown).

Assay [5] relates to HIF-1α. Put plainly: Western blot analysis of HIF-1α in HEK 293 cells under hypoxic conditions. The assay is classed as cell-based, human. Conditions: for HIF-1α levels by Western blot: 2 hours under 1% O2. How it is done: as §1
Assay [6] deals with HIF-1α. Put plainly: Western blot analysis of HIF-1α in HEK 293 cells under ambient oxygen. The assay is classed as cell-based, human. Conditions: HEK 293, ambient oxygen, 1 hr. How it is done:
The first unexpected finding was that the combination of DBM plus Zn^2+ reversed the induced stabilization of HIF-1α observed when the cells were exposed to either DBM or Zn^2+ alone under normoxic conditions (FIG. 15). HEK 293 embryonic kidney cells were incubated at ambient levels of oxygen for 1 hr with the addition of DBM alone, Zn^2+ alone or the combination. HIF-1α was not detected at baseline by Western blot (FIG. 15, lane 1).
One possible explanation for the loss of HIF-1α stabilization in cells treated with DBM plus Zn^2+ is chelation. DBM is a bidentate metal chelator that could itself bind to Zn^2+ in a 2:1 stochiometric ratio, however, the observed loss of HIF-1α stabilization occurred when either DBM or Zn^2+ was present in 50 μM excess at ratios of 4:1 (FIG. 15, lane 3) and 1:1 (FIG. 15, lane 5), respectively. […] Presumably, the increases in HIF-1α in FIG. 15 resulted from HIF P4H inhibition leading to diminished prolyl-4-hydroxylation and disruption of proteosomal degradation.
(In western blotting, separated proteins are transferred to a membrane and probed.)

For assay [7], the system named is HIF-1α. Description: Western blot analysis of HIF-1α in HEK 293 cells with or without proteosome inhibitor MG-132, ambient oxygen. The conditions noted are these: HEK 293, ambient oxygen; for HIF-1α detection by Western blot: 2 hours, agent without further addition; for HIF-1α detection by Western blot with MG-132 added: agent plus MG-132. Format: cell-based, human. The method, then: Proteosomal degradation of HIF-1α was assessed in HEK 293 embryonic kidney cells treated with DBM alone, Zn^2+ alone or the combination under ambient oxygen in the presence or absence of the proteosome inhibitor MG-132 (FIG. 18). […] (FIG. 18, lane 5). […] The HIF-1α isoforms are more clearly resolved on the gel from FIG. 18 than FIG. 15. This may be due to differences in the time the gels were run.

In assay [8] the test system is HIF-1α. Description: Western blot analysis of HIF-1α in VHL (−/−) RCC-4 renal cell carcinoma cells, normoxic. The assay is classed as cell-based, human. The conditions noted are these: RCC-4 VHL (−/−), 1 hour. The source says: As expected, HIF-1α was detected by Western blot under normoxic conditions (FIG. 19, lane 1). […] These experiments have not been performed as yet in RCC4 cells with DBM alone or in RCC4 cells transfected with pVHL.

Assay [9] relates to VEGF. The conditions noted are these: patients with metastatic kidney cancer, high doses; cited from earlier work.
VEGF, sequence (P15692 207-311 limits assumed): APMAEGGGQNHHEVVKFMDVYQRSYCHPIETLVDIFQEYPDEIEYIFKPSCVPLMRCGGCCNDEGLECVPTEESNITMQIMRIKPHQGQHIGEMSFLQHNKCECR

For `[Cd+2]` [Cd^2+], the “Loss of HIF-1α detection on simultaneous treatment with DBM plus metal” value (shortened to “Loss of HIF-1α detection”) in assay [1] is listed as “not observed”.

With `[Co+2]` [Co^2+, reference compound], in assay [2], the “HIF-1α and VEGF levels” value was “rapidly increase”. Moreover, the “Loss of HIF-1α detection” value in assay [1] is “not observed”.

With `O=C(CC(=O)c1ccccc1)c1ccccc1` [DBM, 1,3-diphenylpropane-1,3-dione], the entries for the “HIF-1α levels by Western blot” value in assay [3], in [5] and in assay [6] (DBM alone at 100 μM) were “significantly increased the levels of HIF-1α”, “significantly increased the levels of HIF-1α” and “significant increase in HIF-1α levels”, respectively. Further, in assay [2], the “HIF-1α and VEGF levels” value was “rapidly increase”. Besides, the “HIF-1α mRNA levels (PCR product)” value in assay [4] is “not significantly different from baseline”. The “HIF-1α detection by Western blot” value in [7] is on record as “readily detected”. The “HIF-1α detection by Western blot with MG-132 added” value in [7] is recorded as “did not stabilize these other forms of HIF-1α”.

On to `[Fe+3]` [Fe^3+, reference compound], for which the “HIF-1α levels by Western blot, metal added to DBM” value in assay [3] (2 hours under 1% O2, with DBM) is given as “did not significantly alter the effect of DBM on HIF-1α levels”; in assay [5] (2 hours under 1% O2, with DBM), “decreased slower migrating isoforms of HIF-1α”. In [1], the “Loss of HIF-1α detection” value is “not observed”.

Consider `CC(C)C[C@@H](C=O)NC(=O)[C@H](CC(C)C)NC(=O)[C@H](CC(C)C)NC(=O)OCc1ccccc1` [MG-132, reference compound] (Cbz-Leu-Leu-Leu-aldehyde), for which the “HIF-1α detection by Western blot” value in assay [8] is “Stabilization of HIF-1α was enhanced”; in assay [7], “accumulation of a broad range of proteins that possibly represent ubiquitinated forms of HIF-1α”.

On to `[Ni+2]` [Ni^2+], for which the “Loss of HIF-1α detection” value in assay [1] is “not observed”.

In the case of `[Zn+2]` [Zn^2+], the “HIF-1α levels by Western blot” value in assay [3] was “decreased the more rapidly migrating isoforms of HIF-1α”; in assay [5], “little effect”; in assay [6] (Zn^2+ alone 25 μM to 100 μM), “increased HIF-1α levels in a dose dependent manner”. Further, the “HIF-1α mRNA levels (PCR product)” value in assay [4] is on record as “not significantly different from baseline”. The “HIF-1α detection by Western blot” value in assay [7] is “readily detected”. For the same compound, in assay [7], the “HIF-1α detection by Western blot with MG-132 added” value is “did not stabilize these other forms of HIF-1α”.

With “bevacizumab: humanized monoclonal antibody specific for VEGF”, in assay [9], the Clinical response result is “Clinical responses have been observed”.
